Test results: ChEMBL document CHEMBL1201862, “PubChem BioAssay data set” (2004)
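Grown in 96-well plates, cells were treated for 48 hours with each compound at five concentrations. Insufficient inhibition: endpoint recorded as highest concentration tested. At the GI50, growth is halved.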 The source made the active and inactive calls. Cut-off read from the data, not from the text of the source: active = GI50 up to about 1.1 µM and inactive = higher.

How the values were obtained:
Assay in all cases: DTP human tumour cell line panel, 48 h
DLD-1 = tested on: DLD-1
HOP-18 = tested on: HOP-18
LXFL 529 = tested on: LXFL 529
M19-MEL = tested on: M19-MEL
SNB-78 = tested on: SNB-78
DMS-114 = tested on: DMS-114
DMS-273 = tested on: DMS-273
XF498 = tested on: XF498
RXF 631 = tested on: RXF 631

SMILES | GI50 (DLD-1) | GI50 (HOP-18) | GI50 (LXFL 529) | GI50 (M19-MEL) | GI50 (SNB-78) | GI50 (DMS-114) | GI50 (DMS-273) | GI50 (XF498) | GI50 (RXF 631)
CC1=CC(N2C(=O)C(C)=CC2O)NC1=O (stereo unspecified) | > 100 µM (inactive) | < 0.01 µM (active) | > 100 µM (inactive) | > 100 µM (inactive) | > 100 µM (inactive) |  |  |  | 
Cc1cc(N(CCC#N)CCC#N)ccc1/C=C1/CN(N2C(=O)/C(=C/c3ccc(N(CCC#N)CCC#N)cc3C)N=C2c2ccccc2)C(c2ccccc2)=N1 | > 100 µM (inactive) | > 100 µM (inactive) | 63.5 µM (inactive) | > 100 µM (inactive) | 32.1 µM (inactive) | > 100 µM (inactive) | > 100 µM (inactive) | 36 µM (inactive) | 
O=c1/c(=C/c2ccccc2O)sc2nc3ccccc3n12 | 29.9 µM (inactive) |  | 31.3 µM (inactive) | 41.2 µM (inactive) | 43.2 µM (inactive) | 19.7 µM (inactive) | 82.4 µM (inactive) |  | 43.7 µM (inactive)
CN1c2ccccc2N(C(=O)c2ccc(Cl)cc2)C(CC(=O)O)c2cccn21 (stereo unspecified) | > 100 µM (inactive) |  | > 100 µM (inactive) | > 100 µM (inactive) | > 100 µM (inactive) | > 100 µM (inactive) | > 100 µM (inactive) | > 100 µM (inactive) | 
O=c1nc(/C=C/c2ccccc2Cl)cc2n1CCN2CCO | > 100 µM (inactive) |  | 55.1 µM (inactive) | > 100 µM (inactive) |  | 24.8 µM (inactive) |  |  | 
CCC(=O)C(C)C(=O)C(=O)C(=O)OC (stereo unspecified) | > 100 µM (inactive) | > 100 µM (inactive) | > 100 µM (inactive) | > 100 µM (inactive) | > 100 µM (inactive) | > 82.8 µM (inactive) | > 100 µM (inactive) | > 100 µM (inactive) | > 100 µM (inactive)
COc1nc2c(nc(N)n2C2OCC(O)C(O)C2O)c(=O)n1C (stereo unspecified) | > 100 µM (inactive) | > 100 µM (inactive) | > 100 µM (inactive) | > 100 µM (inactive) | > 100 µM (inactive) | > 100 µM (inactive) |  | 41.8 µM (inactive) | 
CCCOc1ccc(/C(Cl)=C(\C=O)c2ccc(OC)c(OC)c2)cc1OCCC | 5.71 µM (inactive) | > 100 µM (inactive) | 5.74 µM (inactive) | 10.5 µM (inactive) | 6.07 µM (inactive) | 3.07 µM (inactive) | 3.72 µM (inactive) | 6.93 µM (inactive) | 
COC1C(OC(=O)/C=C/C=C/C=C/C=C/C(=O)O)CCC2(CO2)C1C1(C)OC1CC=C(C)C (stereo unspecified) | 26.7 µM (inactive) | 23.4 µM (inactive) |  | 18.7 µM (inactive) | 51.8 µM (inactive) | 19.9 µM (inactive) | 32.2 µM (inactive) | 30.8 µM (inactive) | 
Brc1ccc2ns[s+]c2c1 |  | > 47 µM (inactive) | 0.404 µM (active) | 6.24 µM (inactive) | > 31.6 µM (inactive) | 3.14 µM (inactive) | 1.95 µM (inactive) | > 100 µM (inactive) | 5.06 µM (inactive)
CC1=C(N2CC2)C(=O)C(C)=C(N2CC2)C1=O | 0.21 µM (active) | 0.451 µM (active) | 0.2 µM (active) | 0.229 µM (active) | 0.836 µM (active) | 0.129 µM (active) | 0.0692 µM (active) | 0.132 µM (active) | 
Cc1cc(CC(=O)NCCO)n(CCO)c(=O)c1 | > 100 µM (inactive) | > 100 µM (inactive) | > 100 µM (inactive) | > 100 µM (inactive) | > 100 µM (inactive) | > 100 µM (inactive) | > 100 µM (inactive) | > 100 µM (inactive) | > 100 µM (inactive)
Cn1c(=O)nc2n(-c3ccc(F)c(F)c3)c3ccccc3nc-2c1=O | 16 µM (inactive) | 27.5 µM (inactive) | 21.3 µM (inactive) | 1.76 µM (inactive) | 19.3 µM (inactive) | 4.33 µM (inactive) | 12.1 µM (inactive) | 21.7 µM (inactive) | 16.4 µM (inactive)
